Test results: US5624902A, “Peptide inhibitors of calmodulin” (Torrey Pines Institute for Molecular Studies, priority 1995, dated 1997)
Square brackets hold non-standard residues; d marks the D form. Peptide text beside a SMILES is read from it.

Biological target: calmodulin (Homo sapiens, UniProt P0DP23)
Assay: calcium-dependent phosphodiesterase assay (inhibition of calmodulin activity)
Assay type: biochemical
Details: for inhibition at 50 µM: inhibition of calmodulin activation of phosphodiesterase at 50 μM peptide, PDE without calmodulin = 100%, Calmo = 0%; for IC50: concentration inhibiting 50% of calmodulin activity, assayed at 75 μM, 50 μM and 12.5 μM
Description: In this assay, calmodulin can be assayed by its ability to stimulate phosphodiesterase activity as determined by a two-step assay procedure illustrated by reactions (1) and (2).
During the first step of the assay cyclic adenosine 3'5'-monophosphate (cAMP) is incubated with calcium-activated phosphodiesterase (Cal-PDE), which hydrolyses the 3' bond producing adenosine 5'-monophosphate (5'-AMP). During the second step 5'-AMP is quantitatively converted into adenosine and inorganic phosphate (Pi) through the action of a 5'-nucleotidase. […] The amount of Pi formed is directly related to the phosphodiesterase activity which depends on the level of activation by calmodulin.
To sample assay tubes were added the following components: assay buffer, 25 μl; CaCl2, 5 μl; 5'-nucleotidase, 7.5 μl (stock solution is 10 units/ml); calmodulin 5 units; calmodulin inhibitor peptides to obtain the desired final concentration of 50 μM. The volume was then made up to 200 μl with water. Control blanks were prepared replacing the peptides with water. The added components were thoroughly mixed and the tubes incubated at 30° C. for 10 min. […] The samples were centrifuged to remove the protein precipitate and the 50 μl of the supernatant was withdrawn for phosphate measurement. […] The absorbance of the solution were read at 660 nm using water as a blank, identified as control "Calmo," as discussed in more detail below.
These three peptides commonly used in every assay as control of reproducibility of the assay.
In addition to the calcium-dependent phosphodiesterase assay data, IC50 values were determined for many of the peptides. The assay carried out for the determination in the IC50 values differed from the above screening assay by the concentration of the peptides being tested.
(2) W13: N-(4-aminobutyl)-5-chloro-2-naphtalenesulfonamide; (3) TFP: trifluoperazine; (4) Calmidasolium: (1-[bis-(4-chlorophenyl)methyl]-3[-2-(2,4-dichlorophenyl)-2[(2,4-dichlorophenyl)methoxy]-ethyl]-1H-imidazolium chloride. The IC50 values were calculated using sigmoidal curve software (Graphpad, ISI, San Diego) using the % inhibition at different mixture concentrations (see attached protocol for determination of % inhibition).

Compound	inhibition at 50 µM [%]	IC50 [µM]
CC(=O)N[C@H](CC(C)C)C(=O)N[C@H](Cc1c[nH]c2ccccc12)C(=O)N[C@H](CCCNC(=N)N)C(=O)N[C@H](Cc1c[nH]cn1)C(=O)N[C@H](Cc1c[nH]cn1)C(=O)N[C@H](Cc1c[nH]c2ccccc12)C(N)=O [Ac-(D)Leu-(D)Trp-(D)Arg-(D)His-(D)His-(D)Trp-NH2] (Ac-[dL][dW][dR][dH][dH][dW]-NH2)	36.8	–
CC[C@@H](C)[C@@H](NC(=O)[C@@H](CCCNC(=N)N)NC(=O)[C@@H](Cc1c[nH]c2ccccc12)NC(=O)[C@@H](CC(C)C)NC(C)=O)C(=O)N[C@H](Cc1c[nH]cn1)C(=O)N[C@H](CCCNC(=N)N)C(N)=O [Ac-(D)Leu-(D)Trp-(D)Arg-(D)Ile-(D)His-(D)Arg-NH2] (Ac-[dL][dW][dR][dI][dH][dR]-NH2)	68.4	32
CC[C@@H](C)[C@@H](NC(=O)[C@@H](CCC(N)=O)NC(=O)[C@@H](CC(C)C)NC(C)=O)C(=O)N[C@@H](C(=O)N[C@H](Cc1c[nH]cn1)C(=O)N[C@H](Cc1c[nH]c2ccccc12)C(N)=O)[C@H](C)CC [Ac-(D)Leu-(D)Gln-(D)Ile-(D)Ile-(D)His-(D)Trp-NH2] (Ac-[dL][dQ][dI][dI][dH][dW]-NH2)	35.5	–
CC[C@@H](C)[C@@H](NC(=O)[C@@H](CCC(N)=O)NC(=O)[C@@H](CC(C)C)NC(C)=O)C(=O)N[C@H](Cc1c[nH]cn1)C(=O)N[C@H](Cc1c[nH]cn1)C(=O)N[C@H](Cc1c[nH]c2ccccc12)C(N)=O [Ac-(D)Leu-(D)Gln-(D)Ile-(D)His-(D)His-(D)Trp-NH2] (Ac-[dL][dQ][dI][dH][dH][dW]-NH2)	60.5	76
CC[C@@H](C)[C@@H](NC(=O)[C@@H](Cc1c[nH]c2ccccc12)NC(=O)[C@@H](CC(C)C)NC(C)=O)C(=O)N[C@H](Cc1c[nH]cn1)C(=O)N[C@H](CC(C)C)C(=O)N[C@H](CCCNC(=N)N)C(N)=O [Ac-(D)Leu-(D)Trp-(D)Ile-(D)His-(D)Leu-(D)-Arg-NH2] (Ac-[dL][dW][dI][dH][dL][dR]-NH2)	103	12
CC[C@@H](C)[C@@H](NC(=O)[C@@H](Cc1c[nH]c2ccccc12)NC(=O)[C@@H](CC(C)C)NC(C)=O)C(=O)N[C@@H](C(=O)N[C@H](Cc1c[nH]cn1)C(=O)N[C@H](CCCNC(=N)N)C(N)=O)[C@H](C)CC [Ac-(D)Leu-(D)Trp-(D)Ile-(D)Ile-(D)His-(D)Arg-NH2] (Ac-[dL][dW][dI][dI][dH][dR]-NH2)	89.5	43
CC[C@@H](C)[C@@H](NC(=O)[C@@H](CCCNC(=N)N)NC(=O)[C@@H](Cc1c[nH]c2ccccc12)NC(=O)[C@@H](CC(C)C)NC(C)=O)C(=O)N[C@H](CC(C)C)C(=O)N[C@H](CCCNC(=N)N)C(N)=O [Ac-(D)Leu-(D)Trp-(D)Arg-(D)Ile-(D)Leu-(D)Arg-NH2] (Ac-[dL][dW][dR][dI][dL][dR]-NH2)	107	15
CC[C@@H](C)[C@@H](NC(=O)[C@@H](CCC(N)=O)NC(=O)[C@@H](CC(C)C)NC(C)=O)C(=O)N[C@@H](C(=O)N[C@H](Cc1c[nH]cn1)C(=O)N[C@H](CCCNC(=N)N)C(N)=O)[C@H](C)CC [Ac-(D)Leu-(D)Gln-(D)Ile-(D)Ile-(D)His-(D)Arg-NH2] (Ac-[dL][dQ][dI][dI][dH][dR]-NH2)	43.4	–
CC[C@@H](C)[C@@H](NC(=O)[C@@H](Cc1c[nH]c2ccccc12)NC(=O)[C@@H](CC(C)C)NC(C)=O)C(=O)N[C@@H](C(=O)N[C@H](CC(C)C)C(=O)N[C@H](CCCNC(=N)N)C(N)=O)[C@H](C)CC [Ac-(D)Leu-(D)Trp-(D)Ile-(D)Ile-(D)Leu-(D)Arg-NH2] (Ac-[dL][dW][dI][dI][dL][dR]-NH2)	85.5	10
CC[C@@H](C)[C@@H](NC(=O)[C@@H](CCC(N)=O)NC(=O)[C@@H](CC(C)C)NC(C)=O)C(=O)N[C@H](Cc1c[nH]cn1)C(=O)N[C@H](CC(C)C)C(=O)N[C@H](CCCNC(=N)N)C(N)=O [Ac-(D)Leu-(D)Gln-(D)Ile-(D)His-(D)Leu-(D)Arg-NH2] (Ac-[dL][dQ][dI][dH][dL][dR]-NH2)	28.9	–
CC(=O)N[C@H](CC(C)C)C(=O)N[C@H](Cc1c[nH]c2ccccc12)C(=O)N[C@H](CCCNC(=N)N)C(=O)N[C@H](Cc1c[nH]cn1)C(=O)N[C@H](CC(C)C)C(=O)N[C@H](CCCNC(=N)N)C(N)=O [Ac-(D)Leu-(D)Trp-(D)Arg-(D)His-(D)Leu-(D)Arg--NH2] (Ac-[dL][dW][dR][dH][dL][dR]-NH2)	39.5	> 50
NCCCCNS(=O)(=O)c1ccc2c(Cl)cccc2c1 [Peptide W13, N-(4-aminobutyl)-5-chloro-2-naphtalenesulfonamide, reference compound]	–	< 75
CC[C@@H](C)[C@@H](NC(=O)[C@@H](CCC(N)=O)NC(=O)[C@@H](CC(C)C)NC(C)=O)C(=O)N[C@H](Cc1c[nH]cn1)C(=O)N[C@H](CC(C)C)C(=O)N[C@H](Cc1c[nH]c2ccccc12)C(N)=O [Ac-(D)Leu-(D)Gln-(D)Ile-(D)His-(D)Leu-(D)Trp-NH2] (Ac-[dL][dQ][dI][dH][dL][dW]-NH2)	46	–
CC[C@@H](C)[C@@H](NC(=O)[C@@H](CCC(N)=O)NC(=O)[C@@H](CC(C)C)NC(C)=O)C(=O)N[C@@H](C(=O)N[C@H](CC(C)C)C(=O)N[C@H](Cc1c[nH]c2ccccc12)C(N)=O)[C@H](C)CC [Ac-(D)Leu-(D)Gln-(D)Ile-(D)Ile-(D)Leu-(D)Trp-NH2] (Ac-[dL][dQ][dI][dI][dL][dW]-NH2)	47.4	> 50
CC[C@@H](C)[C@@H](NC(=O)[C@@H](CCCNC(=N)N)NC(=O)[C@@H](Cc1c[nH]c2ccccc12)NC(=O)[C@@H](CC(C)C)NC(C)=O)C(=O)N[C@H](CC(C)C)C(=O)N[C@H](Cc1c[nH]c2ccccc12)C(N)=O [Ac-(D)Leu-(D)Trp-(D)Arg-(D)Ile-(D)Leu-(D)Trp-NH2] (Ac-[dL][dW][dR][dI][dL][dW]-NH2)	101	15
CC[C@@H](C)[C@@H](NC(=O)[C@@H](Cc1c[nH]c2ccccc12)NC(=O)[C@@H](CC(C)C)NC(C)=O)C(=O)N[C@H](Cc1c[nH]cn1)C(=O)N[C@H](CC(C)C)C(=O)N[C@H](Cc1c[nH]c2ccccc12)C(N)=O [Ac-(D)Leu-(D)Trp-(D)Ile-(D)His-(D)Leu-(D)Trp-NH2] (Ac-[dL][dW][dI][dH][dL][dW]-NH2)	103	–
CC(=O)N[C@H](CC(C)C)C(=O)N[C@H](CCC(N)=O)C(=O)N[C@H](CCCNC(=N)N)C(=O)N[C@H](Cc1c[nH]cn1)C(=O)N[C@H](Cc1c[nH]cn1)C(=O)N[C@H](CCCNC(=N)N)C(N)=O [Ac-(D)Leu-(D)Gln-(D)Arg-(D)His-(D)His-(D)Arg-NH2] (Ac-[dL][dQ][dR][dH][dH][dR]-NH2)	63.2	–
CSCC[C@@H](NC(=O)[C@@H](CCSC)NC(=O)[C@@H](Cc1ccccc1)NC(=O)[C@@H](Cc1c[nH]cn1)NC(=O)[C@@H](CC(=O)O)NC(C)=O)C(=O)N[C@H](C)C(N)=O [Ctr 2, Ac-(D)Asp-(D)His-(D)Phe-(D)Met-(D)Met-(D)-Ala-NH2, reference compound] (Ac-[dD][dH][dF][dM][dM][dA]-NH2)	35.5	–
CC[C@@H](C)[C@@H](NC(=O)[C@@H](CCCNC(=N)N)NC(=O)[C@@H](CCC(N)=O)NC(=O)[C@@H](CC(C)C)NC(C)=O)C(=O)N[C@H](CC(C)C)C(=O)N[C@H](Cc1c[nH]c2ccccc12)C(N)=O [Ac-(D)Leu-(D)Gln-(D)Arg-(D)Ile-(D)Leu-(D)Trp-NH2] (Ac-[dL][dQ][dR][dI][dL][dW]-NH2)	44.5	> 50
CSCC[C@@H](NC(=O)[C@@H](Cc1c[nH]cn1)NC(=O)[C@@H](Cc1ccccc1)NC(=O)[C@@H](Cc1ccccc1)NC(C)=O)C(=O)N[C@H](CCSC)C(=O)N1CCC[C@@H]1C(N)=O [Ctr 1, Ac-(D)Phe-(D)Phe-(D)His-(D)-Met-(D)Met-(D)Pro-NH2, reference compound] (Ac-[dF][dF][dH][dM][dM][dP]-NH2)	36.8	–
CC[C@@H](C)[C@@H](NC(=O)[C@@H](CCCNC(=N)N)NC(=O)[C@@H](CCC(N)=O)NC(=O)[C@@H](CC(C)C)NC(C)=O)C(=O)N[C@H](CC(C)C)C(=O)N[C@H](CCCNC(=N)N)C(N)=O [Ac-(D)Leu-(D)Gln-(D)Arg-(D)Ile-(D)Leu-(D)Arg-NH2] (Ac-[dL][dQ][dR][dI][dL][dR]-NH2)	-13.2	> 50
CC[C@@H](C)[C@@H](NC(=O)[C@@H](Cc1c[nH]c2ccccc12)NC(=O)[C@@H](CC(C)C)NC(C)=O)C(=O)N[C@@H](C(=O)N[C@H](CC(C)C)C(=O)N[C@H](Cc1c[nH]c2ccccc12)C(N)=O)[C@H](C)CC [Ac-(D)Leu-(D)Trp-(D)Ile-(D)Ile-(D)Leu-(D)Trp-NH2] (Ac-[dL][dW][dI][dI][dL][dW]-NH2)	23.7	> 50
CC[C@@H](C)[C@@H](NC(=O)[C@@H](CCCNC(=N)N)NC(=O)[C@@H](CCC(N)=O)NC(=O)[C@@H](CC(C)C)NC(C)=O)C(=O)N[C@H](Cc1c[nH]cn1)C(=O)N[C@H](CCCNC(=N)N)C(N)=O [Ac-(D)Leu-(D)Gln-(D)Arg-(D)Ile-(D)His-(D)Arg-NH2] (Ac-[dL][dQ][dR][dI][dH][dR]-NH2)	21.1	> 50
CC(=O)N[C@H](CC(C)C)C(=O)N[C@H](CCC(N)=O)C(=O)N[C@H](CCCNC(=N)N)C(=O)N[C@H](Cc1c[nH]cn1)C(=O)N[C@H](CC(C)C)C(=O)N[C@H](Cc1c[nH]c2ccccc12)C(N)=O [Ac-(D)Leu-(D)Gln-(D)Arg-(D)His-(D)Leu-(D)Trp-NH2] (Ac-[dL][dQ][dR][dH][dL][dW]-NH2)	44.7	–
CC(=O)N[C@H](CC(C)C)C(=O)N[C@H](Cc1c[nH]c2ccccc12)C(=O)N[C@H](CCCNC(=N)N)C(=O)N[C@H](Cc1c[nH]cn1)C(=O)N[C@H](CC(C)C)C(=O)N[C@H](Cc1c[nH]c2ccccc12)C(N)=O [Ac-(D)Leu-(D)Trp-(D)Arg-(D)His-(D)Leu-(D)Trp-NH2] (Ac-[dL][dW][dR][dH][dL][dW]-NH2)	90.8	≤ 10
CC(=O)N[C@H](CC(C)C)C(=O)N[C@H](Cc1c[nH]c2ccccc12)C(=O)N[C@H](CCCNC(=N)N)C(=O)N[C@H](Cc1c[nH]cn1)C(=O)N[C@H](Cc1c[nH]cn1)C(=O)N[C@H](CCCNC(=N)N)C(N)=O [Ac-(D)Leu-(D)Trp-(D)Arg-(D)His-(D)His-(D)Arg-NH2] (Ac-[dL][dW][dR][dH][dH][dR]-NH2)	57.9	–
